Source: PubChem BioAssay AID224 (DTP/NCI, 2004)
Several values for one entry are separate records, joined by “and”; a condition that tells them apart may be missing. Equal entries are not always repeated. Toxic doses and inconclusive results are not listed.

System: P335 leukemia ip, BDF1 mice, survival T/C %
Experiment: NCI In Vivo Anticancer Drug Screen. Data for tumor model P335 Leukemia (intraperitoneal) in B6D2F1 (BDF1) mice
Conditions: endpoint: mean survival time, higher = longer survival
Description: The antitumor activity of compounds was measured in mice bearing transplantable tumors. Survival or tumor size were measured and the results are expressed as the measurement made in the treated group (T) divided by the measurement made in the vehicle treated control group (C). The tumor model used in this assay is P335 Leukemia (intraperitoneal) in B6D2F1 (BDF1) mice

[1] = dose: 4.0 mg/kg/injection, schedule: Q01DX Z (ip), vehicle: carboxymethylcellulose (CMC)
[2] = dose: 8.0 mg/kg/injection, schedule: Q01DX Z (ip), vehicle: carboxymethylcellulose (CMC)
[3] = dose: 16.0 mg/kg/injection, schedule: Q01DX Z (ip), vehicle: carboxymethylcellulose (CMC)
[4] = dose: 31.25 mg/kg/injection, schedule: Q01DX Z (ip), vehicle: carboxymethylcellulose (CMC)

O=C(Nc1ccc(C2=NCCN2)cc1)c1cccc(C(=O)Nc2ccc(C3=NCCN3)cc2)c1
T/C (dose: 9.4 mg/kg/injection, schedule: Q01DX Z (ip), vehicle: carboxymethylcellulose (CMC)): 98 % of control
T/C (dose: 18.75 mg/kg/injection, schedule: Q01DX Z (ip), vehicle: carboxymethylcellulose (CMC)): 114 % of control
T/C (dose: 37.5 mg/kg/injection, schedule: Q01DX Z (ip), vehicle: carboxymethylcellulose (CMC)): 123 % of control
T/C (dose: 75.0 mg/kg/injection, schedule: Q01DX Z (ip), vehicle: carboxymethylcellulose (CMC)): 98 % of control

O=C(Nc1ccc(C2=NCCN2)cc1)c1ccc(C(=O)Nc2ccc(C3=NCCN3)cc2)c(Cl)c1
T/C (dose: 3.75 mg/kg/injection, schedule: Q01DX Z (ip), vehicle: water): 92 % of control
T/C (dose: 7.5 mg/kg/injection, schedule: Q01DX Z (ip), vehicle: water): 120 % of control
T/C (dose: 15.0 mg/kg/injection, schedule: Q01DX Z (ip), vehicle: water): 157 % of control
T/C (dose: 30.0 mg/kg/injection, schedule: Q01DX Z (ip), vehicle: water): 156 % of control and 206 % of control
T/C (dose: 60.0 mg/kg/injection, schedule: Q01DX Z (ip), vehicle: water): 86 % of control

Cn1c(N)nc2nc[nH]c2c1=S
T/C (dose: 1.6 mg/kg/injection, schedule: Q01DX Z (ip), vehicle: carboxymethylcellulose (CMC)): 94 % of control
T/C (dose: 3.1 mg/kg/injection, schedule: Q01DX Z (ip), vehicle: carboxymethylcellulose (CMC)): 94 % of control
T/C (dose: 6.3 mg/kg/injection, schedule: Q01DX Z (ip), vehicle: carboxymethylcellulose (CMC)): 92 % of control

C[C@]12CCC(=O)C=C1CC[C@@H]1[C@@H]2C(=O)C[C@@]2(C)[C@H]1CC[C@]2(O)C(=O)CO
T/C (dose: 3.9 mg/kg/injection, schedule: Q01DX Z (sc), vehicle: steriod suspending solution): 111 % of control
T/C (dose: 31.25 mg/kg/injection, schedule: Q01DX Z (sc), vehicle: steriod suspending solution): 101 % of control
T/C (dose: 250.0 mg/kg/injection, schedule: Q01DX Z (sc), vehicle: steriod suspending solution): 94 % of control

CC(=O)[C@H]1CC[C@H]2[C@@H]3C[C@H](C)C4=CC(=O)CC[C@]4(C)[C@H]3C(=O)C[C@]12C
T/C (dose: 12.5 mg/kg/injection, schedule: Q01DX Z (sc), vehicle: steriod suspending solution): 120 % of control
T/C (dose: 25.0 mg/kg/injection, schedule: Q01DX Z (sc), vehicle: steriod suspending solution): 115 % of control
T/C (dose: 50.0 mg/kg/injection, schedule: Q01DX Z (sc), vehicle: steriod suspending solution): 119 % of control and 124 % of control
T/C (dose: 100.0 mg/kg/injection, schedule: Q01DX Z (sc), vehicle: steriod suspending solution): 107 % of control
T/C (dose: 200.0 mg/kg/injection, schedule: Q01DX Z (sc), vehicle: steriod suspending solution): 100 % of control
T/C (dose: 400.0 mg/kg/injection, schedule: Q01DX Z (sc), vehicle: steriod suspending solution): 88 % of control

NC(Cc1ccc(N(CCCl)CCCl)cc1)C(=O)O (configuration not stated)
T/C (dose: 2.5 mg/kg/injection, schedule: Q01DX Z (ip), vehicle: carboxymethylcellulose (CMC)): 87 % of control
T/C (dose: 5.0 mg/kg/injection, schedule: Q01DX Z (ip), vehicle: carboxymethylcellulose (CMC)): 94 % of control

CCCCNc1ncnc2c1cnn2C
T/C [1]: 86 % of control
T/C [2]: 86 % of control
T/C [3]: 96 % of control
T/C [4]: 101 % of control
T/C (dose: 62.5 mg/kg/injection, schedule: Q01DX Z (ip), vehicle: carboxymethylcellulose (CMC)): 93 % of control

C1CN1c1nc(N2CC2)nc(N2CC2)n1
T/C (dose: 0.9 micrograms/kg/injection, schedule: Q01DX Z (ip), vehicle: saline): 87 % of control
T/C (dose: 1.9 micrograms/kg/injection, schedule: Q01DX Z (ip), vehicle: saline): 90 % of control
T/C (dose: 7.8 micrograms/kg/injection, schedule: Q01DX Z (ip), vehicle: saline): 90 % of control and 114 % of control

CS(=O)(=O)OCCCCOS(C)(=O)=O
T/C (dose: 0.2 mg/kg/injection, schedule: Q01DX Z (ip), vehicle: methylcellulose (MC)): 87 % of control
T/C (dose: 0.4 mg/kg/injection, schedule: Q01DX Z (ip), vehicle: methylcellulose (MC)): 100 % of control
T/C (dose: 0.8 mg/kg/injection, schedule: Q01DX Z (ip), vehicle: methylcellulose (MC)): 98 % of control
T/C (dose: 1.6 mg/kg/injection, schedule: Q01DX Z (ip), vehicle: methylcellulose (MC)): 89 % of control and 104 % of control
T/C (dose: 6.4 mg/kg/injection, schedule: Q01DX Z (ip), vehicle: methylcellulose (MC)): 94 % of control
T/C (dose: 12.8 mg/kg/injection, schedule: Q01DX Z (ip), vehicle: methylcellulose (MC)): 94 % of control
T/C (dose: 25.6 mg/kg/injection, schedule: Q01DX Z (ip), vehicle: methylcellulose (MC)): 87 % of control

O=C(Nc1ccc(C2=NCCCN2)cc1)c1ccc(NC(=O)c2ccc(C3=NCCCN3)cc2)cc1
T/C [1]: 168 % of control
T/C [2]: 176 % of control
T/C [3]: 108 % of control

O=c1cnn(C2OC(CO)C(O)C2O)c(=O)[nH]1 (configuration not stated)
T/C (dose: 0.98 mg/kg/injection, schedule: Q01DX Z (ip), vehicle: water): 102 % of control
T/C (dose: 1.0 mg/kg/injection, schedule: Q01DX Z (ip), vehicle: water): 95 % of control
T/C (dose: 1.95 mg/kg/injection, schedule: Q01DX Z (ip), vehicle: water): 115 % of control
T/C (dose: 2.0 mg/kg/injection, schedule: Q01DX Z (ip), vehicle: water): 98 % of control
T/C (dose: 3.9 mg/kg/injection, schedule: Q01DX Z (ip), vehicle: water): 105 % of control
T/C (dose: 7.8 mg/kg/injection, schedule: Q01DX Z (ip), vehicle: water): 112 % of control
T/C (dose: 8.0 mg/kg/injection, schedule: Q01DX Z (ip), vehicle: water): 93 % of control
T/C (dose: 15.6 mg/kg/injection, schedule: Q01DX Z (ip), vehicle: water): 152 % of control
T/C (dose: 250.0 mg/kg/injection, schedule: Q01DX Z (ip), vehicle: water): 101 % of control
T/C (dose: 500.0 mg/kg/injection, schedule: Q01DX Z (ip), vehicle: water): 104 % of control
T/C (dose: 1000.0 mg/kg/injection, schedule: Q01DX Z (ip), vehicle: water): 112 % of control

Nc1nc(=S)c2ncn(C3OC(CO)C(O)C3O)c2[nH]1 (configuration not stated)
T/C (dose: 0.16 mg/kg/injection, schedule: Q01DX Z (ip), vehicle: carboxymethylcellulose (CMC)): 93 % of control
T/C (dose: 0.31 mg/kg/injection, schedule: Q01DX Z (ip), vehicle: carboxymethylcellulose (CMC)): 117 % of control
T/C (dose: 0.63 mg/kg/injection, schedule: Q01DX Z (ip), vehicle: carboxymethylcellulose (CMC)): 90 % of control
T/C (dose: 1.25 mg/kg/injection, schedule: Q01DX Z (ip), vehicle: carboxymethylcellulose (CMC)): 90 % of control

CSCS(=O)C[C@H](CO)NC(=O)/C=C/c1c(C)[nH]c(=O)[nH]c1=O (some centres not stated)
T/C (dose: 0.12 mg/kg/injection, schedule: Q01DX Z (ip), vehicle: saline): 100 % of control
T/C (dose: 0.25 mg/kg/injection, schedule: Q01DX Z (ip), vehicle: saline): 107 % of control
T/C (dose: 0.5 mg/kg/injection, schedule: Q01DX Z (ip), vehicle: saline): 105 % of control
T/C (dose: 1.0 mg/kg/injection, schedule: Q01DX Z (ip), vehicle: saline): 110 % of control

CC(=O)N(C)C
T/C (dose: 250.0 mg/kg/injection, schedule: Q01DX Z (ip), vehicle: saline): 95 % of control
T/C (dose: 500.0 mg/kg/injection, schedule: Q01DX Z (ip), vehicle: saline): 110 % of control
T/C (dose: 1000.0 mg/kg/injection, schedule: Q01DX Z (ip), vehicle: saline): 92 % of control
T/C (dose: 2000.0 mg/kg/injection, schedule: Q01DX Z (ip), vehicle: saline): 90 % of control

CC1CCOS(=O)O1 (configuration not stated)
T/C (dose: 10.0 mg/kg/injection, schedule: Q01DX Z (ip), vehicle: carboxymethylcellulose (CMC)): 91 % of control
T/C (dose: 20.0 mg/kg/injection, schedule: Q01DX Z (ip), vehicle: carboxymethylcellulose (CMC)): 113 % of control
T/C (dose: 40.0 mg/kg/injection, schedule: Q01DX Z (ip), vehicle: carboxymethylcellulose (CMC)): 117 % of control
T/C (dose: 80.0 mg/kg/injection, schedule: Q01DX Z (ip), vehicle: carboxymethylcellulose (CMC)): 107 % of control

c1ccc(CNc2ncnc3[nH]ncc23)cc1
T/C [1]: 89 % of control
T/C [2]: 90 % of control
T/C [3]: 95 % of control
T/C [4]: 101 % of control

S=P(N1CC1)(N1CC1)N1CC1
T/C (dose: 0.37 mg/kg/injection, schedule: Q01DX Z (ip), vehicle: saline): 107 % of control
T/C (dose: 0.75 mg/kg/injection, schedule: Q01DX Z (ip), vehicle: saline): 109 % of control
T/C (dose: 1.5 mg/kg/injection, schedule: Q01DX Z (ip), vehicle: saline): 104 % of control
T/C (dose: 3.0 mg/kg/injection, schedule: Q01DX Z (ip), vehicle: saline): 112 % of control

Cn1cnc([N+](=O)[O-])c1Sc1nc(N)nc2nc[nH]c12
T/C (dose: 0.25 mg/kg/injection, schedule: Q01DX Z (ip), vehicle: carboxymethylcellulose (CMC)): 93 % of control
